{"source": "patent US20250129096A1", "about": "“ANNULATED 2-AMINO-3-CYANO THIOPHENES AND DERIVATIVES FOR THE TREATMENT OF CANCER” (Boehringer Ingelheim Int'l GmbH Corp., priority 2021, published 2025)", "tested_on": "A375 cells (melanoma, wt, B-Raf mutant)", "test": "A375 CTG proliferation assay (120 h), negative control", "assay_type": "cell-based", "details": "Homo sapiens, A-375, CellTiter-Glo, negative control cell line", "experimental": "A375 cells (ATCC CRL-1619) are dispensed into 384-well plates, flat and clear bottom (Greiner, PNr. 781091) at a density of 300 cells per well in 60 μL DMEM (Sigma D6429)+10% Fetal Calf Serum (HyClone, PNr.: SH30084.03) and incubated at 37° C. in a CO2 incubator overnight. The next day, compounds (10 mM stock in DMSO) are added at logarithmic dose series using the HP Digital Dispenser D300 (Tecan), including DMSO controls. Plates are incubated for 120 h, and cell viability is measured using CellTiter-Glo luminescent cell viability reagent (Promega product code G7570). Viability (stated as percent of control) is defined as relative luminescence units RLU of each well divided by the RLU of cells in DMSO controls. IC50 values are determined from viability measurements by non-linear regression using a four-parameter model.", "data": [{"smiles": "C[C@H]1CNCCN1c1nccc(-c2noc3c2CCC[C@@]32CCCc3sc(N)c(C#N)c32)n1", "note": "[IIf-1]", "values": [{"measurement": "IC50", "value": "> 3", "unit": "µM"}]}]}
